From patent US9382330B2, “Pdia4, target of cytopiloyne derivatives, for tumor diagnosis and treatment” (ACADEMIA SINICA, priority 2010, dated 2016)
Entries after “also recorded” stand apart in the source; their conditions may differ. Like-named read-outs stand apart in the source and are kept apart here.

Key:
[1] = system: tumor cell; conditions: cited from earlier work
[2] = target: T1, GST-Pdia4 (Homo sapiens, UniProt P13667); experiment: Pull down assay of GST fusion proteins with BCP (avidin-POD blot); format: binding; conditions: 2-mercaptoethanol added to the incubation
T1 construct: made in house; host or cells: E. coli BL21 DE3 pLysS
T1 sequence (P13667 21-645): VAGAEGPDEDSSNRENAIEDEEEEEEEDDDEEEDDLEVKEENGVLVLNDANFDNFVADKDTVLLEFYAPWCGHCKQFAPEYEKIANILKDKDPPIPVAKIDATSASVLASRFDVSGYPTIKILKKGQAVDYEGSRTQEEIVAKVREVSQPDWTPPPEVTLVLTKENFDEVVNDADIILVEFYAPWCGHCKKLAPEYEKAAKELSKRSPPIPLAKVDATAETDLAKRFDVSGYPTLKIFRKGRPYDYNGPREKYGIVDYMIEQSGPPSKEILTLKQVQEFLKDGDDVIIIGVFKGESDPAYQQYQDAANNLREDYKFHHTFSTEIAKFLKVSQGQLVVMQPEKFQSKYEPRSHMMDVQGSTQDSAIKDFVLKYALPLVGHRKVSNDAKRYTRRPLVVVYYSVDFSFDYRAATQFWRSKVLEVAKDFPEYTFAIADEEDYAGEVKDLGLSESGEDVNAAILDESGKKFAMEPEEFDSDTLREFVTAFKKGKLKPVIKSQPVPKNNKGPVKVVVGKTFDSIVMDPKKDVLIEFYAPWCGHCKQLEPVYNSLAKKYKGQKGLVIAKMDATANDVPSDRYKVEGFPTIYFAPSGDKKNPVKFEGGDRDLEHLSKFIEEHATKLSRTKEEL
Experimental: (§1) pGEX4T3-Hspa5, pGEX4T3-Pdia4, and pGEX4T3-TecSH3 were obtained by cloning human Hspa5 cDNA, human Pdia4 cDNA and the SH3 domain of mouse Tec cDNA to a pGEX4T3 vector, respectively. GST fusion proteins were purified from the bacterial host E. coli BL21 DE3 pLysS, which harbored the above constructs, according to the manufacturer's instructions (Amersham Biosciences, NJ, USA). Glutathione agarose bead-bound GST fusion proteins (0.15 μg) were incubated with DMSO vehicle or BCP (0.026 μg) for overnight. The proteins were separated by SDS-PAGE and blotted with avidin-POD. For competition assays, CP (0.16 μg (10-fold) and 0.81 μm (50-fold)) or CPA (0.09 μg (10-fold) and 0.45 μm (50-fold)) was added to the above incubation. For interference assay, 2-mercaptoethanol (2.2 mg) was added to the incubation. To test effect of CPA on disulfide isomerase activity of GST-Pdia4, reduced BPTI (0.39 μg) was incubated with redox buffer in the presence of vehicle, 5.64 μg GST-Pdia4 or 5.64 μg GST-Pdia4 plus CPA (0.33 μg). Enzymatic activity of GST-Pdia4, shown as fraction remaining (%), was determined by the conversion of the reduced BPTI into disulfide intermediates as described (Satoh, M., et al. (2005) Cell Stress Chap. 10(3), 211-220).

[3] = system: T cell; conditions: cited from earlier work
[4] = system: Jurkat cells; experiment: Cell growth and death by counting living and dead cells with eosin Y; format: cell-based; conditions: for Jurkat cell growth: indicated concentrations, 6 days
Experimental: (§2) FIGS. 1A-C Effect of cytopiloyne (CP) and cytopiloyne aglycone (CPA) on cell growth, death and proliferation. FIG. 1A-B are graphs showing effects of CP and CPA on growth and death of Jurkat cells. Jurkat cells were grown in RPMI medium in the presence of DMSO (−), CP and CPA at the indicated concentrations for 6 days. Numbers of living cells (FIG. 1A) and dead cells (FIG. 1B) were counted by using eosin Y and hematocytometer. Growth (%) is defined as 100% multiplied by the ratio of the living cell number with compound treatment to that with the control treatment. Death (%) is defined as 100% multiplied by the ratio of the dead cell number to a total of cells (both living and dead). FIG. 1C is a graph showing effect of CP and CPA on proliferation of Jurkat cells. Jurkat cells, which were already labeled with AFSE, were grown under the same condition as the Jurkat cells shown in FIGS. 1A-B. Mean fluorescent intensity (MFI) of the cells on days 0, 2, 4 and 6 were determined using FACS.
Jurkat cells were infected with different lentiviral particles 2 days prior to use. The cells were divided into 3 aliquots. One aliquot was tested for cell growth for 6 days and the number of live and dead cells was calculated using eosin Y. Another aliquot was stained with AFSE, monitored for cell proliferation for 6 days and followed byFACS analysis. Another aliquot was pulsed with 5-bromo-2-deoxyuridine (BrdU) for 30 minutes and chased for 0 to 48 hours. The cells underwent intracellular staining with anti-BrdU antibody and FACS analysis. The other aliquot was tested for caspase activity. Caspase 3/7 fluorescent substrate was incubated with 1 μg of total lysate and caspase activity, shown in relative light unit (RLU), was measured with Victor V luminescence counter. To evaluate in vivo tumor growth, lentivirally infected Jurkat cells (1×10^6) were subcutaneously inoculated into scid/beige mice. Tumor incidence, tumor size and survival rate of the tumor-bearing mice were scored.

[5] = system: Jurkat cells; experiment: WST-1 assay (cell viability / growth inhibition); format: cell-based, human; conditions: WST-1, 24 hour incubation
Experimental: WST-1 assays were performed to measure cell viability. Briefly, Jurkat cells (5×10^3) were grown in 100 μl per well. After 24 hour incubation with DMSO or CP derivatives, the cells were incubated with WST-1 at 37° C. for 30 minutes and characterized by 440 nm absorption. To stain BCP-bound proteins of Jurkat cells, 30 μM of DMSO, biotin and BCP was incubated with Jurkat cells for 24 hours, respectively. After washing, the cells underwent surface or intracellular staining with avidin-PE-TR (Caltag, Calif., USA), followed by fluorescence activated cell sorting (FACS) analysis. The FACS data were processed using FCS express 3.0 software (De Novo Inc, CA, USA).

[6] = system: Jurkat cells; experiment: AFSE cell proliferation assay (FACS); format: cell-based, human; conditions: low doses, up to 6 days
Experimental: as §2
Jurkat cells were infected with different lentiviral particles 2 days prior to use. […] One aliquot was tested for cell growth for 6 days and the number of live and dead cells was calculated using eosin Y. Another aliquot was stained with AFSE, monitored for cell proliferation for 6 days and followed byFACS analysis. […] Tumor incidence, tumor size and survival rate of the tumor-bearing mice were scored.

[7] = target: T1, GST-Pdia4; experiment: Competition assay for binding of GST-Pdia4 and BCP; conditions: 10-fold and 50-fold excess
Experimental: as §1

[8] = target: T1, GST-Pdia4; experiment: Disulfide isomerase activity of GST-Pdia4 with reduced BPTI; format: biochemical; conditions: reduced BPTI substrate, redox buffer
Experimental: as §1

[9] = system: human umbilical vein endothelial cells; conditions: cited from earlier work
[10] = system: TS/A, mammary gland carcinoma; experiment: Cell death of TS/A mammary gland carcinoma; format: cell-based
[11] = target: T1, GST-Pdia4; experiment: MS/MS analysis of GST-Pdia4/CPA adduct; format: binding; conditions: 24 hours, LC/MS/MS
Experimental: Band 1 were cut from the coomassie blue gel and subjected to in gel digestion. Briefly, the gel was dehydrated with acetonitrile, vacuum dried, and rehydrated with ammonium bicarbonate at 37° C. for 1 hour. After alkylation with iodoacetamide, the gel was suspended with 25 mM ammonium bicarbonate containing trypsin at 37° C. for 16 hours. Tryptic peptides were analyzed with LC-nanoESI-MS/MS system. Briefly, the peptides were trapped and desalted isocratically on an LC-Packings PepMap™ C18 μ-Precolumn™ Cartidge (300 μm i.d.×5 mm; Dionex, Calif., USA) for 2 minutes with 0.1% formic acid. The peptides were separated on a C18 capillary column (15 cm×75 μm i.d.) packed with 5 μm, Zorbax 300 SB C18 paticles (Micro-Tech Scientific, Calif., USA), eluted using a 40 minute fast gradient of 5% to 80% acetonitrile containing 0.1% formic acid and subjected to Micromass Q-TOF Ultima™ API mass spectrometer, equipped with an ESI source. After data acquisition, MS/MS spectra for the sample were combined and querred against non-redundant protein database using Mascot program (Matrix Science, MA, USA). For MS/MS analysis of GST-Pdia4 and GST-Pdia4/CPA adduct, GST-Pdia4 (200 μg) was incubated with DMSO or CPA (24 μg) for 24 hours. The proteins underwent LC/MS/MS analysis.

bacitricin
tumor cell death [1]: cause tumor cell death

OCCS [2-mercaptoethanol]
interference of GST-Pdia4/BCP interaction by reducing agent [2]: significantly diminished the interplay of GST-Pdia4 and BCP

CC#CC#CC#CC#CCCC(CO)O[C@@H]1O[C@H](CO)[C@@H](O)[C@H](O)[C@H]1O (some centres unmarked) [CP, cytopiloyne]
T cell proliferation [3]: showed an inhibition of T cell proliferation
cytotoxicity at low doses [4]: did not show significant cytotocxicity
Jurkat cell growth [4]: inhibited Jurkat cell growth in a dose-dependent manner
half maximal inhibitory concentration (IC50) for growth inhibition of Jurkat cells [5]: 52.8 µg/mL
Jurkat cell proliferation [6]: significantly suppressed Jurkat cell proliferation
interference with interaction between BCP and GST-Pdia4 [7]: could interfere with the interaction between BCP and GST-Pdia4 at a dose-dependent manner

CC#CC#CC#CC#CCCC(O)CO (centres unmarked) [CPA, cytopiloyne aglycone]
disulfide isomerase activity of GST-Pdia4 [8]: inhibited this activity
cytotoxicity at low doses ([4]; CPA from 0.7 to 1.3 μg/ml): did not show significant cytotocxicity
Jurkat cell growth [4]: inhibited Jurkat cell growth in a dose-dependent manner
half maximal inhibitory concentration (IC50) for growth inhibition of Jurkat cells [5]: 2.5 µg/mL
cell death of human umbilical vein endothelial cells [9]: promoted cell death
cell death of TS/A [10]: induce cell death
Jurkat cell proliferation [6]: significantly suppressed Jurkat cell proliferation
covalent adduct of CPA on GST-Pdia4 [11]: adducted to two cysteine residues of the second CGHC motif of Pdia4
interference with interaction between BCP and GST-Pdia4 [7]: could interfere with the interaction between BCP and GST-Pdia4 at a dose-dependent manner; also recorded: more effective for the interference than CP
